Data reported in patent US4308278A, “Anorexigenic 4-[(3,4-dialkoxyphenyl)alkyl]-2-imidazolidinone derivatives” (Gyogyszerkutato Intezet, priority 1978, dated 1981).
Structures can show the parent of a compound that is named as a salt.

Assays:
CFY rats [1] = assay: anorexigenic effect in starved CFY rats (feed consumption / body weight); assay type: in vivo, rat; conditions: for Therapeutic ratio / ED50: oral; for Therapeutic ratio: LD50 and ED50 in rats; for ED50: Rattus norvegicus, rats, starved 24 h, dose halving food consumption or body weight gain vs control, read-out: ED50 orally in rats
Protocol: For studying the anorexigenic effect the following method was used. CFY rats were starved for 24 hours, then the substance was orally administered, and half an hour later the animals were allowed to feed ad libitum during 5 hours when the feed consumption was measured. The change in the body weight of animals and the amount of the consumed solid, granulated food or sugar milk or peeled potato, respectively, were determined.
*ED50 is the oral dose after administration of which, following a
period of 24 hours of starvation, the rats consume the half amount of foo
as compared to control, or the oral dose after the administration of whic
the body weight gain is a half of that of control.

CFY rats [2] = conditions: oral, literature value (footnotes 4, 5); cited from earlier work
acute toxicity in mice = conditions: mouse, in vivo
[3] = acute oral toxicity in rats; conditions: rat, in vivo
rats = conditions: oral, literature value (footnotes 2, 3); cited from earlier work
mice = conditions: oral, literature value (footnotes 1, 2, 5); cited from earlier work

OC1(c2ccc(Cl)cc2)c2ccccc2C2=NCCN21 (stereo not drawn) [Mazindol, 5-(4-chlorophenyl)-2,5-dihydro-3H-imidazo[2,1-a]isoindol-5-ol]
Therapeutic ratio (CFY rats [1]): 9.7
ED50 orally in rats (CFY rats [2]): 25.8 mg/kg
LD50 (acute toxicity in mice; po): 106 mg/kg
LD50 [3]: 250 mg/kg

CCNC(C)Cc1cccc(C(F)(F)F)c1 (racemic) [Fenfluramine, DL-N-ethyl-α-methyl-3-trifluoromethylbenzeneethanamine hydrochloride]
ED50 (CFY rats [1]): 7.5 mg/kg
Therapeutic ratio (CFY rats [1]): 20.3
Acute LD50 orally in rats (rats): 138 mg/kg
Acute LD50 orally in mice (mice): 170 to 290 mg/kg
LD50 (acute toxicity in mice; ip): 100 mg/kg

COc1ccc(CC2CNC(=O)N2)cc1OC1CCCC1 (stereo not drawn) [Ia, 4-[(3-cyclopentyloxy-4-methoxyphenyl)methyl]-2-imidazolidinone]
ED50 (CFY rats [1]): 10.5 mg/kg
therapeutic ratio (comparison in words) (CFY rats [1]; compared with anorexigenic drugs introduced so far): more favourable than that of the best anorexigenic drugs introduced so far
anorexigenic effect (CFY rats [1]; in words): much more intense than that of the anorexigenic drugs introduced so far
Therapeutic ratio (CFY rats [1]): 72.5
LD50 (acute toxicity in mice; ip): 680 mg/kg
LD50 (acute toxicity in mice; po): 2050 mg/kg
LD50 [3]: 760 mg/kg

CC(N)Cc1ccccc1 [D-Amphetamine, D-benzeneethanamine sulphate]
ED50 (CFY rats [1]): 5 mg/kg
Therapeutic ratio (CFY rats [1]): 7.6
Acute LD50 orally in rats (rats): 38 mg/kg
Acute LD50 orally in mice (mice): 60 mg/kg

CC(C)(N)Cc1ccc(Cl)cc1.Cl [Chlorphentermine, α,α-dimethyl-4-chlorobenzeneethanamine hydrochloride]
Therapeutic ratio (CFY rats [1]): 30.0
ED50 orally in rats (CFY rats [2]): 12.5 mg/kg
Acute LD50 orally in mice (mice): 250 mg/kg
LD50 [3]: 375 mg/kg
